What was measured:
[1] = system: hippurate hydrolase (EC 3.5.1.32); assay: Same detection method using hippurate hydrolase (Comparative Example 2); type: biochemical; details: hippurate hydrolase instead of amidohydrolase; specimens 5, 10, 20 mM in saline; 37° C.; FIG. 5
Procedure: The absorbance of each specimen was measured in the same manner as in Example, except for using a hitherto known hippurate hydrolase (EC 3.5.1.32, manufactured by Nipro Corporation) instead of the amidohydrolase used in Example. The concentration of hippuric acid or methylhippuric acid in each examination specimen was calculated from the measured absorbance and plotted on a graph. The abscissa, ordinate, and symbols in FIG. 5 are the same as those in FIG. 3 or 4.

aminoacylase PH1043 = assay: Same detection method using aminoacylase PH1043 (Comparative Example 1); type: biochemical, Pyrococcus horikoshii; details: aminoacylase PH1043 instead of amidohydrolase; specimens 5, 10, 20 mM in saline; 37° C.; FIG. 4
Procedure: The absorbance of each specimen was measured in the same manner as in Example, except for using hitherto known aminoacylase PH1043 instead of the amidohydrolase used in Example. The concentration of hippuric acid or methylhippuric acid in each examination specimen was calculated from the measured absorbance and plotted on a graph. The abscissa, ordinate, and symbols in FIG. 4 are the same as those in FIG. 3.
The aminoacylase PH1043 used in Comparative Example 1 is one produced by Nipro Corporation. The aminoacylase PH1043 will not be described in detail as it is a hitherto known enzyme described, for example, in the following literatures: Imai Satsuki, Nagoshi Kentaro, Shinki Shota, Baba Toshiaki, Nishiya Yoshiaki, “Functional Modification of Pyrococcus horikoshii-Derived Hippurate Hydrolase”, The Society for Biotechnology, Japan (2018) (Reference Literature 7); Imai Satsuki, Nagoshi Kentaro, Shinki Shota, Baba Toshiaki, Nishiya Yoshiaki, “Development of Method and Enzyme for Enzymatic Assay of Hippuric Acid”, The Society of Analytical Bio-Science (2019) (Reference Literature 8); Imai Satsuki, Nagoshi Kentaro, Shinki Shota, Baba Toshiaki, Nishiya Yoshiaki, “Functional Improvement of Hippurate Hydrolase”, Japan Society for Bioscience, Biotechnology and Agrochemistry (2019) (Reference Literature 9); Imai Satsuki, Nagoshi Kentaro, Shinki Shota, Baba Toshiaki, Nishiya Yoshiaki, “Functional Improvement of Hippurate Hydrolase toward Practical Use”, The Molecular Biology Society of Japan (2019) (Reference Literature 10); Imai Satsuki, Nagoshi Kentaro, Shinki Shota, Baba Toshiaki, Nishiya Yoshiaki, “Development of Enzymatic Assay Method for Determining Total Exposure to Toluene and Xylene (1)”, The Society of Analytical Bio-Science (2020) (Reference Literature 11); and Suginaka Muneyuki, Torii Gento, Imai Satsuki, Baba Toshiaki, Nishiya Yoshiaki, “Development of Enzymatic Assay Method for Determining Total Exposure to Toluene and Xylene (2)”, The Molecular Biology Society of Japan (2020) (Reference Literature 12). The contents of Reference Literatures 7 to 12 are incorporated herein by reference.

[2] = system: amidohydrolase 4ewt (amino acid sequence of SEQ ID NO: 1, SACOL0085); assay: Enzymatic detection of hippuric acid or methylhippuric acid by hydrolysis with amidohydrolase 4ewt and glycine oxidase/Trinder absorbance measurement (Example); type: biochemical, Staphylococcus aureus COL; details: amidohydrolase 4ewt 30 units/mL; specimens 5, 10, 20 mM in saline; 37° C.; Tris buffer pH 8.5; absorbance 545 nm; FIG. 3
Procedure: A first reagent R1 was prepared which contained 30 units/mL of amidohydrolase 4ewt, 7.5 units/mL of peroxidase, 4.5 mM of N-ethyl-N-(2-hydroxy-3-sulfopropyl)-3-methoxyaniline (TOOS), and 50 mM of Tris buffer (pH 8.5), and a second reagent R2 was prepared which contained 5 units/mL of glycine oxidase, 1.2 mM of 4-aminoantipyrine, and 100 mM of Tris buffer (pH 8.5).
Specimen Groups 1 to 4 and Specimen 0 were prepared as measurement samples, i.e., examination specimens.
Each of the examination specimens was diluted to five times by means of an automatic analyzer to prepare a diluted specimen solution. A volume of 60 μL of the first reagent R1 was added and mixed with 2 μL of the diluted specimen solution, and the reaction was allowed to proceed well at 37° C. After that, 20 μL of the second reagent R2 was further added and mixed with the reaction mixture, and the reaction was allowed to proceed well at 37° C. The absorbance of the resulting specimen solution was measured using an automatic analyzer, manufactured by JEOL Ltd. under the trade name JCA-BM 6050, at a primary wavelength of 545 nm and a secondary wavelength of 805 nm. The concentration of hippuric acid or methylhippuric acid in each examination specimen was calculated from the measured absorbance and plotted on a graph.
In FIG. 3, the abscissa represents known concentrations (unit: mM) of hippuric acid or methylhippuric acid in the examination specimens and the ordinate represents measured concentrations (unit: mM) obtained by the automatic analyzer. In FIG. 3, the diamond symbols represent the specimens of Specimen Group 1, namely the examination specimens containing hippuric acid, the square symbols represent the specimens of Specimen Group 2, namely the examination specimens containing 2-methylhippuric acid, the triangle symbols represent the specimens of Specimen Group 3, namely the examination specimens containing 3-methylhippuric acid, and the x symbols represent the specimens of Specimen Group 4, namely the examination specimens containing 4-methylhippuric acid. The examination specimen for which the known concentration is 0 mM is Specimen 0, which is represented by using all of the symbols representing Specimen Groups 1 to 4 since, as previously stated, Specimen 0 was used as a negative control in measurement for the Specimen Groups 1 to 4.
The amidohydrolase 4ewt used in Example was produced using a gene chemically synthesized by converting the amino acid sequence of SEQ ID NO: 1 to a base sequence. […]

Row | Structure (SMILES) | agreement of measured concentration with actual concentration in the specimen (hydrolysis by the enzyme) [1] | agreement of measured concentration with actual concentration in the specimen (hydrolysis by the enzyme) (aminoacylase PH1043) | agreement of measured concentration with known concentration in the specimen (hydrolysis by the enzyme) [2]
1 | Cc1ccccc1C(=O)NCC(=O)O [2-methylhippuric acid, (2-methylbenzoylamino)acetic acid] | not much different from the measured concentration obtained for the negative control | not much different from the measured concentration obtained for the negative control | agree well with each other
2 | Cc1cccc(C(=O)NCC(=O)O)c1 [3-methylhippuric acid] | agreed well with the actual concentrations | agreed well with the actual concentrations | agree well with each other
3 | Cc1ccc(C(=O)NCC(=O)O)cc1 [4-methylhippuric acid] | agreed well with the actual concentrations | agreed well with the actual concentrations | agree well with each other
4 | O=C(O)CNC(=O)c1ccccc1 [hippuric acid, benzoylaminoacetic acid] | agreed well with the actual concentrations | agreed well with the actual concentrations | agree well with each other
